Laboratory results from ChEMBL document CHEMBL3600292, “Anti-HIV screening for cell-penetrating peptides using chloroquine and identification of anti-HIV peptides derived from matrix proteins” (Bioorg Med Chem, 2015).
Starred links: 1 amine or outer side, 2 acyl side, 3 side chain; linkers in the order of their positions; H or OH if unused. Positions of bridges follow the written chain, without caps; N, C: chain ends. Non-standard residues stand in square brackets, D forms with d. Residues, ends and D or L forms follow the SMILES beside them. Chains are numbered I, II in the order given. *: point of attachment. Orn = NCCC[C@H](N)C(=O)O; X1 = O=C(C[*:1])[*:2]; Cam = NC(=O)C*

Tests used:
[1] = Cytotoxicity against human MT4 cells by MTT assay; assay type: cell-based
[2] = Cytotoxicity against human MT4 cells by MTT assay in presence of 2.5 uM of chloroquine; assay type: cell-based
[3] = Cytotoxicity against human MT4 cells by MTT assay in presence of 5 uM of chloroquine; assay type: cell-based
[4] = Cytotoxicity against human MT4 cells by MTT assay in presence of 10 uM of chloroquine; assay type: cell-based
[5] = tested on: Human immunodeficiency virus 1; assay: Antiviral activity against T-cell line-tropic HIV1 NL4-3 infected in human MT4 cells assessed as inhibition of virus-induced cytopathogenicity after 5 days by MTT assay; assay type: functional, organism-based; conditions: Human immunodeficiency virus 1, NL4-3, MT4, 120 h
[6] = tested on: Human immunodeficiency virus 1; assay: Antiviral activity against T-cell line-tropic HIV1 NL4-3 infected in human MT4 cells assessed as inhibition of virus-induced cytopathogenicity after 5 days by MTT assay in presence of 2.5 uM of chloroquine; assay type: functional, organism-based; conditions: Human immunodeficiency virus 1, NL4-3, MT4, 120 h
[7] = tested on: Human immunodeficiency virus 1; assay: Antiviral activity against T-cell line-tropic HIV1 NL4-3 infected in human MT4 cells assessed as inhibition of virus-induced cytopathogenicity after 5 days by MTT assay in presence of 5 uM of chloroquine; assay type: functional, organism-based; conditions: Human immunodeficiency virus 1, NL4-3, MT4, 120 h
[8] = tested on: Human immunodeficiency virus 1; assay: Antiviral activity against macrophage-tropic HIV1 NL(AD8) infected in human PM1 expressing CCR5 cells assessed as inhibition of virus-induced cytopathogenicity after 5 days by MTT assay in presence of 5 uM of chloroquine; assay type: functional, organism-based; conditions: Human immunodeficiency virus 1, NL(AD8), PM1/CCR5, 120 h
[9] = Cytotoxicity against human PM1 cells expressing CCR5 by MTT assay in presence of 5 uM of chloroquine; assay type: cell-based
[10] = tested on: Human immunodeficiency virus 1; assay: Antiviral activity against T-cell line-tropic HIV1 NL4-3 infected in human MT4 cells assessed as inhibition of virus-induced cytopathogenicity after 5 days by MTT assay in presence of 10 uM of chloroquine; assay type: functional, organism-based; conditions: Human immunodeficiency virus 1, NL4-3, MT4, 120 h

Row | SMILES | CC50 [1] [µM] | CC50 [2] [µM] | CC50 [3] [µM] | CC50 [4] [µM] | EC50 [5] [µM] | EC50 [6] [µM] | EC50 [7] [µM] | EC50 [8] [µM] | CC50 [9] [µM] | EC50 [10] [µM]
1 | c1cc(CN2CCCNCCNCCCNCC2)ccc1CN1CCCNCCNCCCNCC1 [PLERIXAFOR] | > 50 | > 50 | > 50 | > 50 | 0.032 | 0.039 | 0.025 | > 50 | > 50 | 
2 | Cc1cn([C@H]2C[C@H](N=[N+]=[N-])[C@@H](CO)O2)c(=O)[nH]c1=O [ZIDOVUDINE] | > 100 | 27 | > 100 | 31 | 0.12 | 0.015 | 0.013 | 0.51 | > 100 | 
3 | CC[C@H](C)[C@H](NC(=O)[C@H](CCCNC(=N)N)NC(=O)[C@H](CCC(N)=O)NC(=O)[C@H](Cc1c[nH]cn1)NC(=O)[C@@H](NC(=O)[C@H](CO)NC(=O)[C@H](Cc1ccc(O)cc1)NC(=O)[C@H](CC(C)C)NC(=O)[C@@H](NC(=O)[C@H](C)NC(=O)[C@@H](NC(=O)[C@@H](NC(C)=O)[C@@H](C)O)[C@@H](C)CC)C(C)C)C(C)C)C(=O)N[C@@H](CC(=O)O)C(=O)N[C@H](C(=O)N[C@@H](CCCCN)C(=O)NCC(=O)N[C@@H](CSCC(=O)N[C@@H](CCCNC(=N)N)C(=O)N[C@@H](CCCN)C(=O)N[C@@H](CCCNC(=N)N)C(=O)N[C@@H](CCCN)C(=O)N[C@@H](CCCNC(=N)N)C(=O)N[C@@H](CCCN)C(=O)N[C@@H](CCCNC(=N)N)C(=O)N[C@@H](CCCN)C(N)=O)C(N)=O)C(C)C (I: Ac-TIAVLYSVHQRIDVKGC-NH2 / II: R[Orn]R[Orn]R[Orn]R[Orn]-NH2; linker I:17-II:N via X1) | 10 | 6.1 | 11 | 9.1 | 6.3 | 1.6 | 0.62 | 1.1 | 7.2 | 0.2
4 | CC[C@H](C)[C@H](NC(=O)[C@@H](NC(=O)[C@H](CC(N)=O)NC(=O)[C@H](Cc1ccc(O)cc1)NC(=O)[C@H](CC(C)C)NC(=O)[C@H](CO)NC(=O)[C@H](CCCNC(=N)N)NC(=O)[C@H](CC(C)C)NC(=O)[C@H](CCC(=O)O)NC(C)=O)[C@@H](C)O)C(=O)N[C@@H](C)C(=O)N[C@H](C(=O)N[C@@H](CC(C)C)C(=O)N[C@@H](Cc1ccc(O)cc1)C(=O)N[C@@H](CO)C(=O)N[C@H](C(=O)NCC(=O)N[C@@H](CSCC(=O)N[C@@H](CCCNC(=N)N)C(=O)N[C@@H](CCCN)C(=O)N[C@@H](CCCNC(=N)N)C(=O)N[C@@H](CCCN)C(=O)N[C@@H](CCCNC(=N)N)C(=O)N[C@@H](CCCN)C(=O)N[C@@H](CCCNC(=N)N)C(=O)N[C@@H](CCCN)C(N)=O)C(N)=O)C(C)C)C(C)C | 7.7 |  | 8.1 |  | > 7.7 |  | 4.5 | 2.3 | 8.4 | 
5 | CC[C@H](C)[C@H](NC(=O)[C@H](CCCNC(=N)N)NC(=O)[C@H](CCC(N)=O)NC(=O)[C@H](Cc1cnc[nH]1)NC(=O)[C@@H](NC(=O)[C@H](CO)NC(=O)[C@H](Cc1ccc(O)cc1)NC(=O)[C@H](CC(C)C)NC(=O)[C@@H](NC(=O)[C@H](C)NC(=O)[C@@H](NC(=O)[C@@H](NC(C)=O)[C@@H](C)O)[C@@H](C)CC)C(C)C)C(C)C)C(=O)N[C@@H](CC(=O)O)C(=O)N[C@H](C(=O)N[C@@H](CCCCN)C(=O)NCC(=O)N[C@@H](CSCC(N)=O)C(N)=O)C(C)C (Ac-TIAVLYSVHQRIDVKGC(Cam)-NH2) | > 50 | > 50 | 47 | > 50 | > 50 | > 50 | 22 | > 50 | > 50 | 0.65
